Measured values from patent US10052320B2, “Substituted quinoxalines as FGFR kinase inhibitors” (ASTEX THERAPEUTICS LIMITED, priority 2011, dated 2018).

Assays:
Assay type in all cases: cell-based
[1] = target: T1, Ba/F3-Flt3-transfected cells (Homo sapiens, UniProt P36888, cells depend on it, form not given); assay: Ba/F3-Flt3 (minus IL3) cellular proliferation assay, Alamar Blue; conditions: minus IL3
T1 sequence (P36888 1-993): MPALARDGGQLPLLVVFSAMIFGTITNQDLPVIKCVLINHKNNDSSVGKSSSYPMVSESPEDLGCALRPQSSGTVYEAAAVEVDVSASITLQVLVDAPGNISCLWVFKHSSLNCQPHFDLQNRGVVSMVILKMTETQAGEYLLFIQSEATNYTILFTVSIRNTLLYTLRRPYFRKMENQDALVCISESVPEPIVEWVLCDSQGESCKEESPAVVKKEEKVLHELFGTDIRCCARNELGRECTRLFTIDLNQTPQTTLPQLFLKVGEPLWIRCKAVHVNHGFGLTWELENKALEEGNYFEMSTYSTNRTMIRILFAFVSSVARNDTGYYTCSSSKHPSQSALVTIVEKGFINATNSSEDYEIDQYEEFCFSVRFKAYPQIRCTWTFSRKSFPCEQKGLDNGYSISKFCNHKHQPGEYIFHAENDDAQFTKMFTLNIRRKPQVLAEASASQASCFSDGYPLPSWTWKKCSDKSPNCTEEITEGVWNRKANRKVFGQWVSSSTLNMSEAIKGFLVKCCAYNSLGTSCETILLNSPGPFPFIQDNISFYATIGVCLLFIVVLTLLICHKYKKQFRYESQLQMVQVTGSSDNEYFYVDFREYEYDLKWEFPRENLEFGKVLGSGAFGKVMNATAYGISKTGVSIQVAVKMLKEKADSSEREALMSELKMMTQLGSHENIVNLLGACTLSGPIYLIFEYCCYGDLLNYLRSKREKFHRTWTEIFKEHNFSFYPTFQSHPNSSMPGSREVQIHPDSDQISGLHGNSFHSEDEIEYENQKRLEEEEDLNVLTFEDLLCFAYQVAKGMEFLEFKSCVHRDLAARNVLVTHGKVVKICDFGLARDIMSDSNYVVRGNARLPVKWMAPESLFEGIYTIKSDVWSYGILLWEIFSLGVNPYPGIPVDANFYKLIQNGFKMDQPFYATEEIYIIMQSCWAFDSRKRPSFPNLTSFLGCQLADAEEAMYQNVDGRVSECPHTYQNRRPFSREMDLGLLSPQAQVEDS

[2] = target: Ba/F3-KDR-transfected cells (Homo sapiens, UniProt P35968); assay: Ba/F3-KDR (minus IL3) cellular proliferation assay, Alamar Blue; conditions: minus IL3
How it was run: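 Compound in DMSO was combined with Ba/F3-KDR-transfected cells in RPMI-1640, 10% FBS, 2 mM L-glutamine. After 24 h incubation at 37 °C, Alamar Blue was added for a further 4 h, then relative fluorescence units were measured.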

[3] = test system: Ba/F3-Flt3-transfected cells in the presence of 10 ng/ml murine IL3; assay: Ba/F3-Flt3 (plus IL3) cellular proliferation counterscreen, Alamar Blue; conditions: plus 10 ng/ml murine IL3; for IC50: Mus musculus, read-out: BAF3-FLT3 (PLUS IL3) 384 well pIC50 (converted)

Ba/F3-KDR-transfected cells, sequence (P35968 whole entry, change not shown): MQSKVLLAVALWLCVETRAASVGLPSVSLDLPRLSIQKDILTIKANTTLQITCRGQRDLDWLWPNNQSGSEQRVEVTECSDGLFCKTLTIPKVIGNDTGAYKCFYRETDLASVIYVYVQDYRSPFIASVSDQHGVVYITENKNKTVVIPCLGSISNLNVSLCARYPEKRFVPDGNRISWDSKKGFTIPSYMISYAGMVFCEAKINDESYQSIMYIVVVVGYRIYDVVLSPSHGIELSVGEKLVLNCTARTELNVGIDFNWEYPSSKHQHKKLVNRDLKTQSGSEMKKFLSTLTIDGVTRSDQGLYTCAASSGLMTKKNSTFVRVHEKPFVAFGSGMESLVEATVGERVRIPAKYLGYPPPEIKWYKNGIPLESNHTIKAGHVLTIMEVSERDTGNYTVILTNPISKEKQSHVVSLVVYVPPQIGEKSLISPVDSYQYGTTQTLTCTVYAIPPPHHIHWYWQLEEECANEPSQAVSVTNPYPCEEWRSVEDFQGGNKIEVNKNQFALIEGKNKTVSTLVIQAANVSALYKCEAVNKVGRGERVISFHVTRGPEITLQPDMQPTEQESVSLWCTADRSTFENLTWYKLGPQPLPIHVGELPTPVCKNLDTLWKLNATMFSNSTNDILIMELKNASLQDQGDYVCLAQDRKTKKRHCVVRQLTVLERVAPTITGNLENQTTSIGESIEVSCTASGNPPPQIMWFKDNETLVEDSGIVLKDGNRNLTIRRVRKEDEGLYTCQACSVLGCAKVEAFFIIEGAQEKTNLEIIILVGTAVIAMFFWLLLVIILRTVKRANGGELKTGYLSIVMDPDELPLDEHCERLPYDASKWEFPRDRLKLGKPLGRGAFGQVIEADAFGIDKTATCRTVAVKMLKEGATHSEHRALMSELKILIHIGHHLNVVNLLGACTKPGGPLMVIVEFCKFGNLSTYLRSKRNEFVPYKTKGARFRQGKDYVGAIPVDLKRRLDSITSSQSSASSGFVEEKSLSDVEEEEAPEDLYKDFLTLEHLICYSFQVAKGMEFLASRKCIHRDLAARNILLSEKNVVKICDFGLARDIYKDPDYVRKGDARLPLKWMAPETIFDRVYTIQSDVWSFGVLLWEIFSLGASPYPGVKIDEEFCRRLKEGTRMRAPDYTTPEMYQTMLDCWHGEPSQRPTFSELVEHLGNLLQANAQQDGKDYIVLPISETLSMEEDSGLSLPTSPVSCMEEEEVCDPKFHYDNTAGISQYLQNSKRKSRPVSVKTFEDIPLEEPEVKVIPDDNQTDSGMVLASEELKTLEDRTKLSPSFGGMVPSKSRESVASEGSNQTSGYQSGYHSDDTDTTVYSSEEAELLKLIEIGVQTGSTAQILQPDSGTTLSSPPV

Structure (SMILES)	BAF3-FLT3 (MIN IL3) 384 well pIC50 [1]	BAF3-KDR (MIN IL3) 384 well pIC50 [2]	BAF3-FLT3 (MIN IL3) 96 well pIC50 [1]	BAF3-KDR (MIN IL3) 96 well pIC50 [2]	IC50 [3]	BAF3-FLT3 (PLUS IL3) 384 well pIC50 [3]
COCCCN(c1cc(OC)cc(OC)c1)c1ccc2ncc(-c3ccn(C)c3)nc2c1 [Compound 3]	5.07	5.07			> 10 µM	
COc1cc(OC)cc(N(CC2CC2)c2ccc3ncc(-c4nnn[nH]4)nc3c2)c1 [Compound 41]	<5	<5	<5		> 10 µM	
COc1cc(OC)cc(N(CC2CC2)c2ccc3ncc(-c4nnnn4C)nc3c2)c1 [Compound 83]	<5	<5	<5	<5	> 10 µM	
COc1cc(OC)cc(N(CC2CC2)c2ccc3ncc(-n4nccc4C)nc3c2)c1 [Compound 62]	<5	<5	<5		> 10 µM	
COc1cc(OC)cc(N(CC2CC2)c2ccc3ncc(Nc4cnn(C)c4)nc3c2)c1 [Compound 61]	<5	<5	5.25		> 10 µM	
COc1cc(OC)cc(N(CCCNCC(F)(F)F)c2ccc3ncc(-c4ccc(N(C)C(=O)OC(C)(C)C)nc4)nc3c2)c1 [Compound 127]	<5	<5			> 10 µM	
COc1cc(OC)cc(N(CC2CC2)c2ccc3ncc(-n4cncn4)nc3c2)c1 [Compound 50]	<5	<5	<5	<5	> 10 µM	
COc1cc(OC)cc(N(CC2CC2)c2ccc3ncc(-n4cnc(C)c4)nc3c2)c1 [Compound 30]	<5	5.07	5.06	5.11	> 10 µM	
COc1cc(OC)cc(N(CC2CC2)c2ccc3ncc(-c4cn(CCN5CCOCC5)nn4)nc3c2)c1 [Compound 24]	<5	<5	<5	<5	> 10 µM	
COc1cc(OC)cc(N(CC2CC2)c2ccc3ncc(-c4cn(C)cn4)nc3c2)c1 [Compound 21]	<5	<5	<5	<5	> 10 µM	
CNC(=O)OCCN(c1cc(OC)cc(OC)c1)c1ccc2ncc(-c3ccc(NC(=O)OC(C)(C)C)nc3)nc2c1 [Compound 80]	<5	<5			> 10 µM	
COc1cc(OC)cc(N(CC2CC2)c2ccc3ncc(-c4ocnc4C)nc3c2)c1 [Compound 104]	<5	<5			> 10 µM	
COc1cc(OC)cc(N(CC2CC2)c2ccc3ncc(-n4ccnc4C)nc3c2)c1 [Compound 32]	<5	<5	<5		> 10 µM	
CCOC(=O)c1ncn(-c2cnc3ccc(N(CC4CC4)c4cc(OC)cc(OC)c4)cc3n2)c1C [Compound 65]	<5	<5	<5	<5	> 10 µM	
COc1cc(OC)cc(N(CC2CC2)c2ccc3ncc(-c4cn[nH]n4)nc3c2)c1 [Compound 69]	<5	<5	<5	<5	> 10 µM	
COc1cc(OC)cc(N(CC2CC2)c2ccc3ncc(C#Cc4ccncc4)nc3c2)c1 [Compound 23]	<5	<5	5.31	5.36	> 10 µM	
COc1cc(OC)cc(N(CC2CC2)c2ccc3ncc(-c4ccn(CCO)c4)nc3c2)c1 [Compound 56]	<5	~5	<5	5.29	> 10 µM	
COc1cc(OC)cc(N(CCCO)c2ccc3ncc(-c4ccnc(C(=O)NCCCN)c4)nc3c2)c1 [Compound 33]	<5	<5			> 10 µM	

The next lines start with results.

BAF3-FLT3 (MIN IL3) 384 well pIC50 [1]	BAF3-KDR (MIN IL3) 384 well pIC50 [2]	BAF3-FLT3 (MIN IL3) 96 well pIC50 [1]	BAF3-KDR (MIN IL3) 96 well pIC50 [2]	Structure (SMILES)	IC50 [3]	BAF3-FLT3 (PLUS IL3) 384 well pIC50 [3]
~5.01	5.56			COc1cc(OC)cc(N(CCNC(C)C)c2ccc3ncc(-c4cccnc4)nc3c2)c1 [Compound 10]	9.33 µM	
<5	5.1			COc1cc(OC)cc(N(CCO)c2ccc3ncc(-c4ccncc4)nc3c2)c1 [Compound 11]	> 10 µM	
<5	<5			COc1cc(OC)cc(N(CC(OC(C)=O)C(F)(F)F)c2ccc3ncc(-c4cccnc4)nc3c2)c1 (single isomer, unassigned) [Compound 75]		<5
<5	<5			COc1cc(OC)cc(N(CC(O)CO)c2ccc3ncc(-c4ccc(N)nc4)nc3c2)c1 (stereo not drawn) [Compound 74]	> 10 µM	
<5	<5			COc1cc(OC)cc(N(CC(O)C(F)(F)F)c2ccc3ncc(-c4cccnc4)nc3c2)c1 (single isomer, unassigned) [Compound 54]		<5
<5	<5			CNC(=O)c1cc(-c2cnc3ccc(N(CCCNCC(F)(F)F)c4cc(OC)cc(OC)c4)cc3n2)ccn1 [Compound 122]	> 10 µM	
5.04	5.45			COc1cc(OC)cc(N(CC2CO2)c2ccc3ncc(-c4ccc(N)nc4)nc3c2)c1 (stereo not drawn) [Compound 110]	> 10 µM	
<5	<5			COc1cc(OC)cc(N(CC(O)C(F)(F)F)c2ccc3ncc(-c4cccnc4)nc3c2)c1 (single isomer, unassigned) [Compound 53]	> 10 µM	
<5	5.12			COc1cc(OC)cc(N(CCO)c2ccc3ncc(-c4cccnc4)nc3c2)c1 [Compound 9]	> 10 µM	
5.03	5.07	5.31	<5	COc1cc(OC)cc(N(CC2CC2)c2ccc3ncc(-c4ccn(C)c4)nc3c2)c1 [Compound 73]	> 10 µM	
<5	<5	<5		COc1cc(OC)cc(N(CC2CC2)c2ccc3ncc(-c4ccnn4C)nc3c2)c1 [Compound 18]	> 10 µM	
<5	<5	<5	<5	COc1cc(OC)cc(N(CC2CC2)c2ccc3ncc(-c4cnco4)nc3c2)c1 [Compound 55]	> 10 µM	
<5	5.18			COCCN(c1cc(OC)cc(OC)c1)c1ccc2ncc(-c3ccn(C)c3)nc2c1 [Compound 6]	> 10 µM	
5.17	5.82			COc1cc(OC)cc(N(CCNC(C)C)c2ccc3ncc(-c4ccc(N)nc4)nc3c2)c1 [Compound 17]	> 9.55 µM	
<5	<5			COc1cc(OC)cc(N(CCO)c2ccc3ncc(-c4ccccc4)nc3c2)c1 [Compound 120]	> 10 µM	
